Assay results: US11814444B2, “Cyclic polypeptides for PCSK9 inhibition” (Ra Pharmaceuticals, Inc., priority 2018, dated 2023)
Numbered stars: 1 amine (or outer) side, 2 acyl side, 3 side chain; on linkers, the order of the positions; unused ones are H or OH. Bridge positions count the residues as written; N and C are the ends. Square brackets hold non-standard residues; d marks the D form. Peptide text beside a SMILES is read from it. * marks the point of attachment. Trp(7-aza) = N[C@@H](Cc1c[nH]c2ncccc12)C(=O)O; X8 = O=C([C@H](Cc1ccc2[nH]ncc2c1)N[*:1])[*:2]; Phe(4-F) = N[C@@H](Cc1ccc(F)cc1)C(=O)O; X5 = O=C([C@H](Cc1cnco1)N[*:1])[*:2]; mXylylene = c1cc(C[*:1])cc(C[*:2])c1; pXylylene = c1cc(C[*:2])ccc1C[*:1]; 2Pal = N[C@@H](Cc1ccccn1)C(=O)O; 3Pal = N[C@@H](Cc1cccnc1)C(=O)O; Tle = CC(C)(C)[C@H](N)C(=O)O; αMeV = CC(C)[C@](C)(N)C(=O)O; NMeA = CN[C@@H](C)C(=O)O; Nva = CCC[C@H](N)C(=O)O; Ac4c = NC1(C(=O)O)CCC1; Aib = CC(C)(N)C(=O)O; Ms = CS(=O)(=O)*; Mpa = O=C(O)CCS

What was measured:
[1] = target: human PCSK9 / human LDLR EGFa domain interaction (Homo sapiens, UniProt Q8NBP7); test: TR-FRET assay of inhibition of the PCSK9-LDLR protein-protein interaction; type: binding; settings: 20 nM avitag-biotinylated human PCSK9, 20 nM his-tagged human LDLR EGFa domain, 2 hours, room temperature
How it was run: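 Compounds in dose-response are mixed with 20 nM human PCSK9 (avitag-biotinylated) and 20 nM his-tagged LDLR EGFa domain, plus 5 nM each streptavidin-Ulight and Eu-anti-6×His. After 2 h at room temperature in HEPES/NaCl/CaCl2 buffer with BSA and P20, TR-FRET is read and IC50 fitted (4-parameter).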

PCSK9 = PCSK9 (Homo sapiens, UniProt Q8NBP7); test: PCSK9 Alexa FRET Standard assay (displacement of AlexaFluor647 tagged cyclic peptide Reagent A); type: binding; settings: 0.5 nM PCSK9, 20 nM AF cyclic peptide Reagent A
Experimental: A solution containing 1 nM biotinylated PCSK9+2.5 nM Lance Streptavidin Europium (Strep-Eu) was made in 50 mM HEPES pH 7.4, 0.15 M NaCl, 5 mM CaCl2), 0.01% BSA, and 0.01% Surfactant P20. A separate solution containing 40 nM of the AlexaFluor tagged cyclic peptide was made in the same buffer system. An Echo was used to transfer 0.750 ul of compound to an assay plate followed by the addition of 15 ul of PCSK9+Stept-Eu and 15 ul of AF peptide. The final assay volume was 30.750 ul containing 0.5 nM PCSK9, 1.25 nM Strep-Eu, and 20 nM AF cyclic peptide. The reaction was incubated at room temperature for at least two hours prior to fluorescence measurements using an Envision Multilabel Reader. IC50 values were determined by fitting data to a sigmoidal dose-response curve using nonlinear regression. Ki was then calculated from the IC50 and the KD of AF cyclic peptide. Counts (B-counts) of the europium-labeled PCSK9 were followed to observe if compounds were […]. A fall off of the B-counts likely indicated a false positive of inhibition. Data from this procedure was reported as “A=‘numerical value’ (nanomolar)”

Chain of human PCSK9 / human LDLR EGFa domain interaction (Q8NBP7 153-692): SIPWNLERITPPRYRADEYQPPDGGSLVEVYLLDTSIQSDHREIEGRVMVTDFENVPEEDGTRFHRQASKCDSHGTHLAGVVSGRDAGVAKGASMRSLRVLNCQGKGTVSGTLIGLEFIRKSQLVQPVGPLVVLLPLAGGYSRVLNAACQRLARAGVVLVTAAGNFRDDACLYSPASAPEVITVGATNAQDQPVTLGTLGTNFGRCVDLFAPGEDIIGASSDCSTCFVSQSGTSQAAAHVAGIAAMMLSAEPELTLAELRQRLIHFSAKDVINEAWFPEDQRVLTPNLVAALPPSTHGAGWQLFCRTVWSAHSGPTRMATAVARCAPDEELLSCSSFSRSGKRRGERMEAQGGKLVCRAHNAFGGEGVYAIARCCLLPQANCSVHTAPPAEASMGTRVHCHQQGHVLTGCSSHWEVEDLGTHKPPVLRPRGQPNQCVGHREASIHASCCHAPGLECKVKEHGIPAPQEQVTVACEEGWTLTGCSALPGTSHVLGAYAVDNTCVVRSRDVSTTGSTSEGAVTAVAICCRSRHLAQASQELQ
Chain of human PCSK9 / human LDLR EGFa domain interaction (Q8NBP7 31-152 partner limits assumed): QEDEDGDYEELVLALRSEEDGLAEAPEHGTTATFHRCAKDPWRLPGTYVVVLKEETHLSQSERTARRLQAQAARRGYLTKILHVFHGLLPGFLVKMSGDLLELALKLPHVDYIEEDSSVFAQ
Chain of PCSK9 (Q8NBP7 153-692): as the sequence (Q8NBP7 153-692) above

Row | Structure (SMILES) | IC50 [1] | IC50 (PCSK9)
1 | CCC[C@@H]1NC(=O)[C@H](Cc2c[nH]c3ncccc23)NC(=O)[C@H]([C@@H](C)O)NC(=O)[C@H](Cc2cnco2)NC(=O)[C@H](Cc2ccc(O)cc2)NC(=O)[C@H](C(C)(C)C)NC(=O)CCSCc2cccc(c2)CSC[C@@H](C(N)=O)NC(=O)[C@H]([C@@H](C)O)NC(=O)[C@H](CCC)NC(=O)[C@H](Cc2ccc(O)cc2)NC(=O)[C@H](CCC(=O)O)NC1=O [Compound 106] ([Mpa][Tle]Y[X5]T[Trp(7-aza)][Nva]EY[Nva]TC-NH2; linker 1-12 via mXylylene) | 0.1 to 1 µM | 1 to 21 µM
2 | CC(C)[C@]1(C)NC(=O)[C@H](Cc2ccc(O)cc2)NC(=O)[C@H](C)NC(=O)C2(CCC2)NC(=O)[C@H](Cc2c[nH]c3ncccc23)NC(=O)[C@H]([C@@H](C)O)NC(=O)[C@@H]2CCCN2C(=O)[C@H](Cc2ccc(O)cc2)NC(=O)[C@H](C(C)(C)C)NC(=O)[C@@H](NS(C)(=O)=O)CSCc2cccc(c2)CSC[C@H](C(N)=O)NC(=O)[C@H]([C@@H](C)O)NC1=O [Compound 192] (Ms-C[Tle]YPT[Trp(7-aza)][Ac4c]AY[αMeV]T[dC]-NH2; linker 1-12 via mXylylene) | 0.001 to 0.1 µM | 0.001 to 0.1 µM
3 | CCC[C@@H]1NC(=O)[C@H](Cc2ccc(O)cc2)NC(=O)[C@H](CCC(=O)O)NC(=O)[C@H](C)N(C)C(=O)[C@H](Cc2c[nH]c3ncccc23)NC(=O)[C@H]([C@@H](C)O)NC(=O)[C@H](Cc2c[nH]cn2)NC(=O)[C@H](Cc2ccc(O)cc2)NC(=O)[C@H](C(C)(C)C)NC(=O)CCSCc2cccc(c2)CSC[C@@H](C(N)=O)NC(=O)[C@H]([C@@H](C)O)NC1=O [Compound 207] ([Mpa][Tle]YHT[Trp(7-aza)][NMeA]EY[Nva]TC-NH2; linker 1-12 via mXylylene) | 50 to 100 µM | 50 to 100 µM
4 | CC(=O)N[C@H]1CSCc2cccc(c2)CSC[C@H](C(N)=O)NC(=O)[C@H]([C@@H](C)O)NC(=O)[C@](C)(C(C)C)NC(=O)[C@H](Cc2ccc(O)cc2)NC(=O)[C@H](C)NC(=O)C2(CCC2)NC(=O)[C@H](Cc2c[nH]c3ncccc23)NC(=O)[C@H]([C@@H](C)O)NC(=O)[C@@H]2CCCN2C(=O)[C@H](Cc2ccc(O)cc2)NC(=O)[C@H](C(C)(C)C)NC1=O [Compound 185] (Ac-C[Tle]YPT[Trp(7-aza)][Ac4c]AY[αMeV]T[dC]-NH2; linker 1-12 via mXylylene) | 0.001 to 0.1 µM | 0.001 to 0.1 µM
5 | CCC[C@@H]1NC(=O)[C@H](Cc2c[nH]c3ncccc23)NC(=O)[C@H]([C@@H](C)O)NC(=O)C(C)(C)NC(=O)[C@H](Cc2ccc(O)cc2)NC(=O)[C@H](C(C)(C)C)NC(=O)CCSCc2cccc(c2)CSC[C@@H](C(N)=O)NC(=O)[C@H]([C@@H](C)O)NC(=O)[C@H](CCC)NC(=O)[C@H](Cc2ccc(O)cc2)NC(=O)[C@H](CCC(=O)O)NC1=O [Compound 005] ([Mpa][Tle]Y[Aib]T[Trp(7-aza)][Nva]EY[Nva]TC-NH2; linker 1-12 via mXylylene) |  | 21 to 50 µM
6 | CC(=O)N[C@H]1CSCc2cccc(c2)CSC[C@@H](C(N)=O)NC(=O)[C@H]([C@@H](C)O)NC(=O)[C@H](C)NC(=O)[C@H](Cc2ccc(O)cc2)NC(=O)[C@H](CCC(=O)O)NC(=O)[C@H](C)NC(=O)[C@H](Cc2c[nH]c3ncccc23)NC(=O)[C@H]([C@@H](C)O)NC(=O)[C@H](Cc2c[nH]cn2)NC(=O)[C@H](Cc2ccc(O)cc2)NC(=O)[C@H](C(C)(C)C)NC1=O [Compound 242] (Ac-C[Tle]YHT[Trp(7-aza)]AEYATC-NH2; linker 1-12 via mXylylene) |  | 1 to 21 µM
7 | CCC[C@H](NC(C)=O)C(=O)N[C@H]1CSCc2cccc(c2)CSC[C@@H](C(N)=O)NC(=O)[C@H]([C@@H](C)O)NC(=O)[C@H](CCC)NC(=O)[C@H](Cc2ccc(O)cc2)NC(=O)[C@H](CCC(=O)O)NC(=O)[C@H](CCC)NC(=O)[C@H](C)NC(=O)[C@H]([C@@H](C)O)NC(=O)[C@H](Cc2cnc[nH]2)NC(=O)[C@H](Cc2ccc(O)cc2)NC(=O)[C@H](C(C)(C)C)NC1=O [Compound 230] (Ac-[Nva]C[Tle]YHTA[Nva]EY[Nva]TC-NH2; linker 2-13 via mXylylene) |  | 50 to 100 µM
8 | CCC[C@@H]1NC(=O)[C@H](Cc2ccc(O)cc2)NC(=O)[C@H](CCC(=O)O)NC(=O)[C@H](Cc2c[nH]c3ncccc23)NC(=O)[C@H]([C@@H](C)O)NC(=O)[C@H](Cc2c[nH]cn2)NC(=O)[C@H](Cc2ccc(O)cc2)NC(=O)[C@H](C(C)(C)C)NC(=O)CCSCc2cccc(c2)CSC[C@@H](C(N)=O)NC(=O)[C@H]([C@@H](C)O)NC1=O [Compound 248] ([Mpa][Tle]YHT[Trp(7-aza)]EY[Nva]TC-NH2; linker 1-11 via mXylylene) |  | 50 to 100 µM
9 | CCC[C@@H]1NC(=O)[C@H](Cc2c[nH]c3ncccc23)NC(=O)[C@H]([C@@H](C)O)NC(=O)[C@H](Cc2cccnc2)NC(=O)[C@H](Cc2ccc(O)cc2)NC(=O)[C@H](C(C)(C)C)NC(=O)CCSCc2cccc(c2)CSC[C@@H](C(N)=O)NC(=O)[C@H]([C@@H](C)O)NC(=O)[C@H](CCC)NC(=O)[C@H](Cc2ccc(O)cc2)NC(=O)[C@H](CCC(=O)O)NC1=O [Compound 113] ([Mpa][Tle]Y[3Pal]T[Trp(7-aza)][Nva]EY[Nva]TC-NH2; linker 1-12 via mXylylene) |  | 50 to 100 µM

Further lines, results first:

Row | IC50 [1] | IC50 (PCSK9) | Structure (SMILES)
10 |  | 50 to 100 µM | CCC[C@@H]1NC(=O)[C@H](Cc2ccccn2)NC(=O)[C@H]([C@@H](C)O)NC(=O)[C@H](Cc2c[nH]cn2)NC(=O)[C@H](Cc2ccc(O)cc2)NC(=O)[C@H](C(C)(C)C)NC(=O)CCSCc2cccc(c2)CSC[C@@H](C(N)=O)NC(=O)[C@H]([C@@H](C)O)NC(=O)[C@H](CCC)NC(=O)[C@H](Cc2ccc(O)cc2)NC(=O)[C@H](CCC(=O)O)NC1=O [Compound 271] ([Mpa][Tle]YHT[2Pal][Nva]EY[Nva]TC-NH2; linker 1-12 via mXylylene)
11 |  | 1 to 21 µM | CCC[C@@H]1NC(=O)[C@H](Cc2c[nH]c3ncccc23)NC(=O)[C@H]([C@@H](C)O)NC(=O)[C@H](Cc2c[nH]cn2)NC(=O)[C@H](Cc2ccc(O)cc2)NC(=O)[C@H](C(C)(C)C)NC(=O)CCSCc2cccc(c2)CSC[C@@H](C(N)=O)NC(=O)[C@H]([C@@H](C)O)NC(=O)[C@H](CCC)NC(=O)[C@H](Cc2ccccc2)NC(=O)[C@H](CCC(=O)O)NC1=O [Compound 256] ([Mpa][Tle]YHT[Trp(7-aza)][Nva]EF[Nva]TC-NH2; linker 1-12 via mXylylene)
12 |  | 1 to 21 µM | CCC[C@@H]1NC(=O)[C@H](Cc2c[nH]c3ncccc23)NC(=O)[C@H]([C@@H](C)O)NC(=O)[C@H](Cc2c[nH]cn2)NC(=O)[C@H](Cc2ccc(O)cc2)NC(=O)[C@H](C(C)(C)C)NC(=O)CCSCc2cccc(c2)CSC[C@@H](C(N)=O)NC(=O)[C@H]([C@@H](C)O)NC(=O)[C@H](CCC)NC(=O)[C@H](Cc2ccc(F)cc2)NC(=O)[C@H](CCC(=O)O)NC1=O [Compound 266] ([Mpa][Tle]YHT[Trp(7-aza)][Nva]E[Phe(4-F)][Nva]TC-NH2; linker 1-12 via mXylylene)
13 |  | 50 to 100 µM | CCC[C@@H]1NC(=O)[C@H](Cc2ccc(O)cc2)NC(=O)[C@H](CCC(=O)O)NC(=O)[C@H](CCC)NC(=O)[C@H]([C@@H](C)O)NC(=O)[C@H](Cc2c[nH]cn2)NC(=O)[C@H](Cc2ccc(O)cc2)NC(=O)[C@H](C(C)(C)C)NC(=O)CCSCc2ccc(cc2)CSC[C@@H](C(N)=O)NC(=O)[C@H]([C@@H](C)O)NC1=O [Compound 251] ([Mpa][Tle]YHT[Nva]EY[Nva]TC-NH2; linker 1-11 via pXylylene)
14 |  | 50 to 100 µM | CCC[C@@H]1NC(=O)[C@H](Cc2cccnc2)NC(=O)[C@H]([C@@H](C)O)NC(=O)[C@H](Cc2c[nH]cn2)NC(=O)[C@H](Cc2ccc(O)cc2)NC(=O)[C@H](C(C)(C)C)NC(=O)CCSCc2cccc(c2)CSC[C@@H](C(N)=O)NC(=O)[C@H]([C@@H](C)O)NC(=O)[C@H](CCC)NC(=O)[C@H](Cc2ccc(O)cc2)NC(=O)[C@H](CCC(=O)O)NC1=O [Compound 272] ([Mpa][Tle]YHT[3Pal][Nva]EY[Nva]TC-NH2; linker 1-12 via mXylylene)
15 |  | 50 to 100 µM | CCC[C@@H]1NC(=O)[C@H](Cc2c[nH]c3ncccc23)NC(=O)[C@H]([C@@H](C)O)NC(=O)[C@H](Cc2c[nH]cn2)NC(=O)[C@H](Cc2ccc(O)cc2)NC(=O)[C@H](C(C)(C)C)NC(=O)CCSCc2cccc(c2)CSC[C@@H](C(N)=O)NC(=O)[C@H]([C@@H](C)O)NC(=O)[C@H](CCC)NC(=O)[C@H](Cc2ccc3[nH]ncc3c2)NC(=O)[C@H](CCC(=O)O)NC1=O [Compound 257] ([Mpa][Tle]YHT[Trp(7-aza)][Nva]E[X8][Nva]TC-NH2; linker 1-12 via mXylylene)
16 |  | 0.1 to 1 µM | CCC[C@@H]1NC(=O)[C@H](Cc2ccc(O)cc2)NC(=O)[C@H](CCC(=O)O)NC(=O)C(C)(C)NC(=O)[C@H](Cc2c[nH]c3ncccc23)NC(=O)[C@H]([C@@H](C)O)NC(=O)[C@H](Cc2c[nH]cn2)NC(=O)[C@H](Cc2ccc(O)cc2)NC(=O)[C@H](C(C)(C)C)NC(=O)CCSCc2cccc(c2)CSC[C@@H](C(N)=O)NC(=O)[C@H]([C@@H](C)O)NC1=O [Compound 268] ([Mpa][Tle]YHT[Trp(7-aza)][Aib]EY[Nva]TC-NH2; linker 1-12 via mXylylene)
